Data published in patent US20110105577A1 (priority 2007, published 2011).

Row | Structure (SMILES) | Aflatoxin B1 [ppb] (Aspergillus flavus) | Aflatoxin B1 [ppb] (Aspergillus parasiticus)
1 | CON=C(C(=O)OC)c1ccccc1CON=C(C)c1cccc(C(F)(F)F)c1 [Trifloxystrobin] | 375 ppb | 9775 ppb
2 | OC(Cc1ccccc1Cl)(Cn1nc[nH]c1=S)C1(Cl)CC1 (centres unmarked) [Prothioconazole] | 865 ppb | 37785 ppb
3 | N#Cc1c[nH]cc1-c1cccc2c1OC(F)(F)O2 [Fludioxonil] | 1230 ppb | 17390 ppb
4 | CC(C)(C)C(O)(CCc1ccc(Cl)cc1)Cn1cncn1 (centres unmarked) [Tebuconazole] | 2445 ppb | 4545 ppb
